Columns and labels:
[1] = test system: planktonic Candida auris cells; assay: Growth of planktonic C. auris cells (OD600); type: cell-based; conditions: one dose, PAO1 D-EVs 0.25 μg/μl, E. coli D-EVs 0.15 μg/μl, YPD broth
Procedure: (§1) FIGS. 16A-16H summarize the EV bacterial protocol adapted for a fungal pathogen, C. auris. […] Fungal cell growth was monitored by measuring the OD600 of the cell culture. […] FIG. 16D illustrates the overall cellular levels of ROS radicals (including ·O2^− and ·OH) of C. auris in YPD broth culture in response to bacterial D-EV treatments. After 24 hr. of growth, C. auris cell culture (OD600=0.5) was mixed with a Cellular ROS Assay Kit (ab186027) and further incubated for 1 hr. Then, one dose of D-EVs extracted from either PAO1 (0.25 μg/μl) or E. coli (0.15 μg/μl) was added, followed by immediate monitoring of changes in fluorescence intensity (n=4). […] H2O2 (20%) was used as a positive control to stimulate C. auris to produce ·OH species.
Candida auris (B11220, ATCC) frozen at −80° C. was activated in yeast peptone dextrose (YPD) broth overnight at 37° C. Cells were be maintained at 4° C. on YPD-agar plates. The in vitro C. auris biofilms were be prepared by first activating the cultures at 4° C. in YPD broth at 37° C., then transferring a volume of 2.5 μL (OD600˜0.5) onto sterile 13-mm polycarbonate membrane (WHA10417401, Sigma-Aldrich) on YPD-agar plates (FIG. 17). The plates were then incubated at 37° C. for 0 h, 24 h, 48 h, and 72 h, respectively, for the following experiments.

[2] = test system: P. aeruginosa PAO1 biofilms; assay: PAO1 colony biofilm growth, viable cell count (Log10 CFU/cm^2); type: cell-based; conditions: for Effect of ferric ions alone on 96-h PAO1 biofilm growth (in words): 10, 25, 50 μM Fe^3+
Procedure: P. aeruginosa (PAO1) from a −80° C. freezer was streaked on tryptic soy agar (TSA, BD Difco™ Dehydrated Culture Media, DF0369-17-6) and incubated overnight at 37° C. The P. aeruginosa was maintained on TSA plates at 4° C. and an inoculum was prepared by transferring a touch from this plate into 10 mL of tryptic soy broth (BD Bacto™) and incubated overnight. Then, a volume of 100 μL (OD600=0.1) was used to seed 47-mm sterilized filter membranes (Membrane Solutions MCE Gridded Membrane Filter, Mixed Cellulose Esters Membrane Filter, Pore Size: 0.45 μm) on TSA petri dishes. The plates were incubated at either 37° C. or 33° C. At desired time points (0, 1, 2, 4, 8, 12, 16, 24, 32, 48, 72, 85, 96, and 120 h), the biofilm was suspended in 0.9% NaCl to prepare serial dilutions for colony forming unit (CFU) counting. The viable cell concentration (CFU/cm^2) was calculated according to the literature. All experiments were done under aseptic conditions. TSA and TSB were autoclaved at 121° C. and […] for 50 min/L.
To quantify the effects of G-EVs and D-EVs on the growth behavior of P. aeruginosa PAO1 biofilms, biofilms grown for 2 hr. (lag phase), 8 hr. (exponential phase), and 24 hr. (stationary phase) were tested. Briefly, an inoculum was prepared by transferring a touch from the P. aeruginosa PAO1-TSA plates into 10 ml of TSB and incubating the plates at 37° C. overnight. A volume of 2.5 μL (OD600˜0.5) was used to seed sterile 13-mm polycarbonate membranes (WHA10417401, Sigma-Aldrich) on TSA plates and incubated at 37° C. Biofilms grown for 2 hr. were treated with one dose of G-EVs (0.028 μg/μL) or D-EVs (0.33 μg/μL) and incubated at 37° C. for 24 hours. Biofilms grown for 8 hr. were treated with one dose of G-EVs (0.037 μg/μL) or D-EVs (0.33 μg/μL) and incubated at 37° C. for 24 hours. Three doses of D-EVs (0.33 μg/μL) were applied (one dose every 24 h) to biofilms grown for 24 h, and the plates were incubated at 37° C. Then viable cells were counted and reported as CFU/cm^2.
To test if the suppression of PAO1 biofilm growth is caused by D-EV-induced excessive iron uptake by D-EV recipient cells leading to the activation of bacterial cell death, the research team examined whether D-EV-induced excessive iron uptake could improve the poor efficacy of the D EVs against 96-h biofilms (FIG. 9D). […]
The viability of treated P. aeruginosa PAO1 biofilms was investigated and compared to control. P. aeruginosa PAO1 biofilms at 2 hr., 8 hr., 24 hr., 48 hr., and 96 hr. were individually treated with a one-dose of P. aeruginosa PAO1 D-EVs±iron (50 μM) and the biofilm inhibition was quantified in the term of log10 CFU·cm^−2.

C. auris = assay: Cellular ROS assay in C. auris culture; type: cell-based, Candida auris; conditions: PAO1 D-EVs 0.25 μg/μl, E. coli D-EVs 0.15 μg/μl; ertapenem, tetracycline 2 mg/mL
Procedure: as §1

## OO [H2O2 (30%), H2O2]
[1]
  C. auris growth (in words): effectively inhibited fungal growth

## [Fe+3] [ferric ions]
[2]; 2, 8, 24, 48, 96 hr. biofilms, one dose D-EVs ± iron 50 μM, 24 hr. exposure
  Growth of PAO1 biofilms at 2-96 hr. after one dose (in words): increased
[2]; 96-h biofilms
  Effect of ferric ions alone on 96-h PAO1 biofilm growth (in words): marginally promoted biofilm growth
[2]; 96-h biofilms, listed as Ferric ions
  Effect of ferric ions alone on 96-h PAO1 biofilm growth (in words): very minimal effect
[2]; 96-h biofilms, ferric ions alone (10-50 μM), PBS control ~8.2
  Growth of 96-h PAO1 biofilm with ferric ions alone: 8.7 log10

## C[C@@H](O)[C@H]1C(=O)N2C(C(=O)O)=C(S[C@@H]3CN[C@H](C(=O)Nc4cccc(C(=O)O)c4)C3)[C@H](C)[C@H]12 [ertapenem]
C. auris
  ROS production in C. auris (in words): No change in ROS production

Reference: patent publication US20250281548A1, “ANTIMICROBIAL COMPOSITIONS COMPRISING EXTRACELLULAR VESICLES AND METHODS THEREOF” (Washington State University, priority 2024, published 2025)
